Earlier results as cited in article PMC2693004 (Bioorganic & medicinal chemistry letters, 2009).
Entries after “also recorded” stand apart in the source; their conditions may differ.

Molecular target: T1, recombinant human MAO-A (Homo sapiens, UniProt P21397)
T1 sequence (P21397 1-527): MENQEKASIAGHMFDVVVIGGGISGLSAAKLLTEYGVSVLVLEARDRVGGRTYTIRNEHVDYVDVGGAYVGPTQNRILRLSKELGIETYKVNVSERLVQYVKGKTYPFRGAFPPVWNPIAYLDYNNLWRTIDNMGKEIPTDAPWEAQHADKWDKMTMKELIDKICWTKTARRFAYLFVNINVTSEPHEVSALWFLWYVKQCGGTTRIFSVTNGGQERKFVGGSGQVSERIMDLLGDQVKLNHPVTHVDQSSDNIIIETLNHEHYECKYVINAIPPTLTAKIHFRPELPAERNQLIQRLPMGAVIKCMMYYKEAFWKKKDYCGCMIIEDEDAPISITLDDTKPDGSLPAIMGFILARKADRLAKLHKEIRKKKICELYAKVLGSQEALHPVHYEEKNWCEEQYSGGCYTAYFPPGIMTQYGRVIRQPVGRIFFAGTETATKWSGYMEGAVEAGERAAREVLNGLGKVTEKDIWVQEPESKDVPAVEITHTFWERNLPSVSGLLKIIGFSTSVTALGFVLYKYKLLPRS

Structure (SMILES)	binding to MAO-A
Cn1c(=O)c2c(nc(/C=C/c3cccc(Cl)c3)n2C)n(C)c1=O [CSC, (E)-8-(3-chlorostyryl)caffeine]	does not bind; also recorded: do not to bind
C(=CCc1ccccc1)Cc1ccccc1 [1,4-diphenyl-2-butene]	do not to bind
